Test results as given in patent US12662451B2, “Chemical compounds and uses thereof” (GLAXOSMITHKLINE INTELLECTUAL PROPERTY (NO.4) LIMITED, priority 2023, dated 2026).
Where two headings read alike, the source gives them in different places.

Assays:
[1] = test system: SW48 human colorectal cancer cells (MSI-H cancer cells); test: SW48 cell viability, CellTiter-Glo, 120 hours (Example B); conditions: Homo sapiens
[2] = target: T1, recombinant full-length WRN protein (1-1432) (Homo sapiens, UniProt Q14191); test: WRN unwinding activity, fluorogenic 384-well assay (Example A); format: biochemical; conditions: WRN unwinding activity, 4 hr; Table 2; read-out: 4 hr UNW pIC50 (converted)
T1 construct: recombinant full-length WRN protein (1-1432)
Summary of the method: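 200 pM enzyme (2× stock) preincubated with compound 4 h at ambient temperature, then 200 μM ATP and 12 nM quenched TAMRA-labelled dsDNA (2× stocks) added for 60 min; EDTA-quenched. Buffer 25 mM Tris pH 8.0, 5 mM NaCl, 2 mM MgCl2. Fluorescence at 525/598 nm; pIC50 from four-parameter fit.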

[3] = Cell culture media unbound percentage and stability by rapid equilibrium dialysis (Example C); format: in vitro ADME; conditions: bovine, cell assay medium (RPMI-1640 with 10% fetal bovine serum), pH 7.4, rapid equilibrium dialysis, 4 hours at 37° C., read-out: Cell Culture Media Binding (% unbound)
Summary of the method: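 Compound spiked into cell culture medium at nominal 1 μM and dialysed against PBS (100 mM sodium phosphate + 150 mM NaCl, pH 7.4) by rapid equilibrium dialysis, triplicate, 4 h at 37° C with shaking. LC-MS/MS peak area ratios gave percent unbound (receiver/donor) and percent stability (240 min vs 0 min).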

[4] = test system: SW48 human colorectal cancer cells; test: Calculated free drug potency in SW48 cell assay, corrected with media free fraction (Example C); format: cell-based; conditions: Homo sapiens, SW48, SW48 pCC50 corrected with measured free fraction in cell assay media
Summary of the method: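 Compound spiked at nominal 1 μM into cell assay medium and dialysed against PBS (100 mM sodium phosphate, 150 mM NaCl, pH 7.4) by rapid equilibrium dialysis, 4 h, 37 °C, shaking. Percent unbound from LC-MS/MS peak area ratios (240 min vs 0 min); cell assay concentrations corrected by this free fraction.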

[5] = SW48, 120 h, read-out: SW48 pCC50, SW48 cell viability, 120 hours incubation (converted), Table 2
[6] = SW48, read-out: SW48 pCC50, measured potency from Example B, as repeated in Table 3 (converted)

T1 sequence (Q14191 whole entry): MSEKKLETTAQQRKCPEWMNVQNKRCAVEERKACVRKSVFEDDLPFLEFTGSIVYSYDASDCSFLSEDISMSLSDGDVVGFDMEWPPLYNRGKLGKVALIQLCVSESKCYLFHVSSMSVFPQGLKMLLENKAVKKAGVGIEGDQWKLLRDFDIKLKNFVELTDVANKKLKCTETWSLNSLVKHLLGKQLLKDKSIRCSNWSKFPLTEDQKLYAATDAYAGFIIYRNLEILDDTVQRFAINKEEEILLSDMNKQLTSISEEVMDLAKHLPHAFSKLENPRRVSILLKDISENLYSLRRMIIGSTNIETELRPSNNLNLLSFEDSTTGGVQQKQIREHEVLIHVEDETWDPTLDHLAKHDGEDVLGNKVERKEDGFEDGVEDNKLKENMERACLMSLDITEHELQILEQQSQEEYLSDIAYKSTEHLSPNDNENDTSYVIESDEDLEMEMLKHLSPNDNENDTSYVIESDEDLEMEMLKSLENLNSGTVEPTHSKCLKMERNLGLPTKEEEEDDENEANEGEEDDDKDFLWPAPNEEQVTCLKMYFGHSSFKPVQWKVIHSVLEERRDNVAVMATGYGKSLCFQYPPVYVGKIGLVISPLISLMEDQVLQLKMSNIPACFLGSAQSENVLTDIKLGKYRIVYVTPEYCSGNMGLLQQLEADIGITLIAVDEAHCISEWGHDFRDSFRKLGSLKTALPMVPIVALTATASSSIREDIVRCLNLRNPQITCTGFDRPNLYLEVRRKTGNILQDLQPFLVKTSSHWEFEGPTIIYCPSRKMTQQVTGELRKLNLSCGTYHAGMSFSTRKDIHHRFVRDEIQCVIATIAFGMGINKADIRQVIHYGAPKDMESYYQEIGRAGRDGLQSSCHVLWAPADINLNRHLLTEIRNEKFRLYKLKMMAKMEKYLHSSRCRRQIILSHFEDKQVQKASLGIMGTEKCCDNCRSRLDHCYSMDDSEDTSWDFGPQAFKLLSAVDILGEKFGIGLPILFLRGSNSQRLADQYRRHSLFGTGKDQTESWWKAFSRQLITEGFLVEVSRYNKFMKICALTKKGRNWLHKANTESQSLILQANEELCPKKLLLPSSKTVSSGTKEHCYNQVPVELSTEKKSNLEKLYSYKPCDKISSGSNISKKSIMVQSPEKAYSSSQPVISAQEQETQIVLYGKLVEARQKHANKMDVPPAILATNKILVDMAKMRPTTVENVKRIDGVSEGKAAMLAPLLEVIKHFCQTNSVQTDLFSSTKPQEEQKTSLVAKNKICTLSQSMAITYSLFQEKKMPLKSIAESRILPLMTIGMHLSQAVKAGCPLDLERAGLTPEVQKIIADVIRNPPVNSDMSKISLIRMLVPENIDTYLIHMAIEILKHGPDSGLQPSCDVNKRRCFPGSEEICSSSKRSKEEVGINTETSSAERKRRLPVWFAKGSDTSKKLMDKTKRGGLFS

Compound	IC50 [2] [nM]	fraction unbound at 4 h, 1 µM [3]	CC50 [1, 5] [nM]	CC50 [1, 6] [nM]	CC50 [4] [nM]
CCO[C@@H]1C[C@H](c2ccc(N(C)S(=O)(=O)c3ccc4c(c3)nc3n4CCCC3)cc2)[C@@H](C(=O)O)[C@H](C(=O)Nc2ccc(C(F)(F)F)cc2F)C1 [Example 279, (1R,2R,4R,6S)-4-ethoxy-2-((2-fluoro-4-(trifluoromethyl)phenyl)carbamoyl)-6-(4-((N-methyl-1,2,3,4-tetrahydrobenzo[4,5]imidazo[1,2-a]pyridine)-7-sulfonamido)phenyl)cyclohexane-1-carboxylic acid]	2	0.079	126	126	10
CN(C)CCc1nc2cc(S(=O)(=O)N(C)c3ccc([C@H]4CCC[C@@H](C(=O)Nc5ccc(C(F)(F)F)cc5F)[C@@H]4C(=O)O)cc3)ccc2n1C [Example 272, (1R,2S,6R)-2-(4-((2-(2-(dimethylamino)ethyl)-N,1-dimethyl-1H-benzo[d]imidazole)-5-sulfonamido)phenyl)-6-((2-fluoro-4-(trifluoromethyl)phenyl)carbamoyl)cyclohexane-1-carboxylic acid]	1.58	0.236	158	158	37.2
CN(c1ccc([C@H]2CCC[C@@H](C(=O)Nc3ccc(C(F)(F)F)cc3F)[C@@H]2C(=O)O)cc1)S(=O)(=O)c1cccc(C(=O)N2CCOCC2)c1 [Example 119, (1R,2R,6S)-2-((2-fluoro-4-(trifluoromethyl)phenyl)carbamoyl)-6-(4-((N-methyl-3-(morpholine-4-carbonyl)phenyl)sulfonamido)phenyl)cyclohexane-1-carboxylic acid]	1.58	0.231	1000	1000	229
Cc1nc2cc(S(=O)(=O)N(C)c3ccc([C@H]4CCC[C@@H](COc5ccc(C(F)(F)F)cc5O)[C@@H]4C(=O)O)cc3)ccc2n1C [Example 206, (1R,2R,6S)-2-((2-hydroxy-4-(trifluoromethyl)phenoxy)methyl)-6-(4-((N,1,2-trimethyl-1H-benzo[d]imidazole)-5-sulfonamido)phenyl)cyclohexane-1-carboxylic acid]	15.8	0.0032	3980	3980	12.9
CN(C)Cc1cccc(S(=O)(=O)N(C)c2ccc([C@H]3CCC[C@@H](C(=O)Nc4ccc(C(F)(F)F)cc4F)[C@@H]3C(=O)O)cc2)c1 [Example 97]	2	0.241	1000	1000	240
CCO[C@@H]1C[C@H](c2ccc(N(C)S(=O)(=O)c3ccc4[nH]c(C)nc4c3)cc2)[C@@H](C(=O)O)[C@H](C(=O)Nc2ccc(C(F)(F)F)cc2F)C1 [Example 281, (1R,2S,4R,6R)-2-(4-((N,2-dimethyl-1H-benzo[d]imidazole)-5-sulfonamido)phenyl)-4-ethoxy-6-((2-fluoro-4-(trifluoromethyl)phenyl)carbamoyl)cyclohexane-1-carboxylic acid]	1.58	0.148	794	794	117
CN(c1ccc([C@H]2CCC[C@@H](C(=O)Nc3ccc(C(F)(F)F)cc3F)[C@@H]2C(=O)O)cc1)S(=O)(=O)c1ccc2c(c1)OCC2 [Example 112, (1R,2R,6S)-2-((2-fluoro-4-(trifluoromethyl)phenyl)carbamoyl)-6-(4-((N-methyl-2,3-dihydrobenzofuran)-6-sulfonamido)phenyl)cyclohexane-1-carboxylic acid]	2.51	0.0405	794	794	32.4
CO[C@@H]1C[C@H](C(=O)Nc2ccc(C(F)(F)F)cc2F)[C@@H](C(=O)O)[C@H](c2ccc(N(C)S(=O)(=O)c3ccc4c(c3)nc(C)n4C)cc2)C1 (relative stereo) [Example 148, rel-(1R,2R,4R,6S)-2-((2-fluoro-4-(trifluoromethyl)phenyl)carbamoyl)-4-methoxy-6-(4-((N,1,2-trimethyl-1H-benzo[d]imidazole)-5-sulfonamido)phenyl)cyclohexane-1-carboxylic acid]	1.26	0.129	200	200	25.7
Cc1nc2cc(S(=O)(=O)N(C)c3ccc([C@H]4CCC[C@@H](COc5ccc(C(F)(F)F)cc5)[C@@H]4C(=O)O)cc3)ccc2n1CCN(C)C [Example 219, (1R,2S,6R)-2-(4-((1-(2-(dimethylamino)ethyl)-N,2-dimethyl-1H-benzo[d]imidazole)-5-sulfonamido)phenyl)-6-((4-(trifluoromethyl)phenoxy)methyl)cyclohexane-1-carboxylic acid]	5.01	0.0031	6310	6310	19.5

The next lines start with results.

IC50 [2] [nM]	fraction unbound at 4 h, 1 µM [3]	Compound	CC50 [1, 5] [nM]	CC50 [1, 6] [nM]	CC50 [4] [nM]
5.01	0.235	Cc1nc2cc(S(=O)(=O)N(C)c3ccc([C@@H]4C[C@@H]5COC[C@@H]5[C@@H](C(=O)Nc5ccc(C(F)(F)F)cc5F)[C@@H]4C(=O)O)cc3)ccc2n1C (single isomer, unassigned) [Example 389]	2510	2510	589
1.58	0.144	Cc1nc2cc(S(=O)(=O)N(C)c3ccc([C@H]4C[C@@H](O[C@H]5CCOC5)C[C@@H](C(=O)Nc5ccc(C(F)(F)F)cc5F)[C@@H]4C(=O)O)cc3)ccc2n1C (stereo in doubt) [Example 323, (1R*,2R*,4R*,6S*)-2-((2-fluoro-4-(trifluoromethyl)phenyl)carbamoyl)-4-(((S)-tetrahydrofuran-3-yl)oxy)-6-(4-((N,1,2-trimethyl-1H-benzo[d]imidazole)-5-sulfonamido)phenyl)cyclohexane-1-carboxylic acid]	100	100	14.5
63.1	0.384	COCCO[C@@H]1C[C@H](C(=O)Nc2ccc(C(F)(F)F)cc2F)[C@@H](C(=O)O)[C@H](c2ccc(N(C)S(=O)(=O)c3ccc4c(c3)nc(C)n4C)cc2)C1 (stereo in doubt) [Example 315, rel-(1R,2R,4R,6S)-2-((2-fluoro-4-(trifluoromethyl)phenyl)carbamoyl)-4-(2-methoxyethoxy)-6-(4-((N,1,2-trimethyl-1H-benzo[d]imidazole)-5-sulfonamido)phenyl)cyclohexane-1-carboxylic acid]	10000		3800
1.58	0.0993	Cc1nc2cc(S(=O)(=O)N(C)c3ccc([C@H]4C[C@H]5COC[C@H]5[C@@H](C(=O)Nc5ccc(C(F)(F)F)cc5F)[C@@H]4C(=O)O)cc3)ccc2n1C (stereo in doubt) [Example 392, rel-(3aR,4R,5R,6S,7aR)-4-((2-fluoro-4-(trifluoromethyl)phenyl)carbamoyl)-6-(4-((N,1,2-trimethyl-1H-benzo[d]imidazole)-5-sulfonamido)phenyl)octahydroisobenzofuran-5-carboxylic acid]	251	251	25.1
